Structures are written as SMILES. pIC50: −log10 of the molar value.

Data on 1 compound can be found in patent US10793543B2, “Selective C-KIT kinase inhibitor” (PRECEDO PHARMACEUTICALS CO., LTD, priority 2016, dated 2020).

One data set relates to GIST-T1 cells. Kind of data set: Cancer cell proliferation, CCK-8, GIST-T1. The class given is cell-based. Particulars: Homo sapiens, GISTT1, GIST-T1, KIT WT, 72 hours. The text has this: (§1) In the present example, the following cells were used: chronic myelogenous leukemia cells K562 (expressing P210 Bcr-Abl mutant gene), human megakaryocytic leukemia cells MEG-01 (expressing P210 Bcr-Abl mutant gene), human peripheral blood basophilic leukemia cells Ku812 (expressing Bcr-Abl mutant gene) (all above cells purchased from ATCC, USA), human gastrointestinal stromal tumor cell lines GIST-T1 cells (expressing wild-type C-KIT gene) (purchased from Cosmo Bio Co., Ltd., Japan), human gastrointestinal stromal tumor cell lines GIST-882 cells (expressing wild-type C-KIT gene) (presented by the Professor Gray Lab, Dana-Farber Cancer Institute, Harvard University, USA), mouse pro-B cells BaF3 (purchased from ATCC, USA).
(§2) The cells were incubated for 72 hours, and then the number of viable cells was quantified with a microplate reader by using CCK-8 Cell Viability Assay Kit (purchased from Bestbio Company, Shanghai, China) (CCK-8 can be reduced by dehydrogenase in living cells to a highly water-soluble yellow formazan product, and the amount of formazan produced is proportional to the number of living cells).

Data set [1] has as its system P210/BaF3 cells (P210 Bcr-Abl). Kind of data set: Cell proliferation, CCK-8, P210/BaF3. The class given is cell-based. The note with it: Mus musculus; P210/BaF3, Bcr-Abl, 72 hours, CCK-8; read-out: GI50.
Description: In addition, in the present example, further uses: mouse P210/BaF3 (stably expressing P210 Bcr-Abl mutant gene), mouse Tel-ABL-BaF3 (stably expressing wild-type ABL kinase), mouse Tel-cKit-BaF3 (stably expressing C-KITwild-type kinase), mouse Tel-cKit/V559D-BaF3 (stably expressing C-KIT V559D mutant kinase), mouse Tel-cKit/V559D/V654A-BaF3 (stably expressing C-KIT V559D/V654A mutant kinase), mouse Tel-cKit/N822K-BaF3 (stably expressing C-KIT N822K mutant kinase), mouse Tel-cKit/V654A-BaF3 (stably expressing C-KIT V654A mutant kinase), mouse Tel-cKit/L567P-BaF3 (stably expressing C-KIT L567P mutant kinase), mouse Tel-cKit/T670I-BaF3 (stably expressing C-KIT T670I mutant kinase), mouse Tel-PDGFRα-BaF3 (stably expressing PDGFRα kinase), mouse Tel-PDGFRβ-BaF3 (stably expressing PDGFRβ kinase), mouse Tel-VEGFR2-BaF3 (stably expressing VEGFR2 kinase), mouse Tel-RET-BaF3 (stably expressing RET kinase). […]
as §2

The next data set deals with T1, protein kinase C-KIT (Homo sapiens, UniProt P10721).
T1 construct: The kinase domain of protein kinase C-KIT was cloned into the insect expression vector pFASTHTA; His tag; made in house; host or cells: SF9 insect cells (Bac-to-Bac baculovirus system)
T1 sequence (P10721 589-937 limits assumed): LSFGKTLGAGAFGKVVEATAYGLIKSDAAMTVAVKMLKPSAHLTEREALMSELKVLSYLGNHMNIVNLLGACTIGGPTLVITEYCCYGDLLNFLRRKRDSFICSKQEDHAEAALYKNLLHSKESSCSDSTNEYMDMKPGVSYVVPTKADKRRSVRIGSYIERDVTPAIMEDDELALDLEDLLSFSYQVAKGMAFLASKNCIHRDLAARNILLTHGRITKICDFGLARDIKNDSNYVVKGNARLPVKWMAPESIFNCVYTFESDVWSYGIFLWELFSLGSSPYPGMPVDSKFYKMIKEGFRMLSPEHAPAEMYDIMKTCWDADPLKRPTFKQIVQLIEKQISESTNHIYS
The data set is described as follows: In vitro enzyme activity assay (ADP-Glo). The class given is biochemical. The note with it: purified C-KIT kinase domain, ATP 10 μM. As for the experimental part:
The IC50 value of Compound 4 against protein kinase C-KIT was determined in an in vitro enzyme activity assay. The kinase domain of protein kinase C-KIT was cloned into the insect expression vector pFASTHTA (purchased from Invitrogen life technologies), and the protein with His tag was expressed using the insect expression system Bac-to-Bac Baculovirus Expression System (purchased from Invitrogen life technologies). The constructed vector was transfected into SF9 packaging virus (purchased from Invitrogen life technologies), and the virus was used to infect SF9 to express the protein. Purification was performed using affinity chromatography.
9 μL (6 ng/μL) of purified C-KIT protein kinase was reacted with 1 μL of the above Compound 4 with 3× gradient dilution (the final concentrations of the drug were 10 μM, 3 μM, 1 μM, 0.3 μM, 0.1 μM, 0.03 μM, 0.01 μM, 0.003 μM) at room temperature for 4 hours;
2 μL of ATP and 3 μL of substrate, Poly(4:1 Glu, Tyr)Peptide (Promega, US), were added (final concentrations were 10 μM and 0.2 μg/μL, respectively), and reacted at 37° C. for 1 hour; […]
10 μL of kinase detection reagent was added to transfer ADP into ATP, and the newly synthesized ATP was detected by using coupled luciferase/fluorescein reaction, then the IC50 values were calculated by using a plotting method based on the Envision reading.
On the technique in general: In ADP-Glo the light output rises with the ADP produced.

The test system of data set [2] is gastrointestinal stromal tumor cell lines GIST-882. The data set is described as follows: Mouse tumor model of GIST-882 cells. It counts as in vivo. Particulars: GIST-882 model; for tumor inhibition rate: Day 21 after administration. As to the method: 1. 4-6 week-old Bal b/c female mice were purchased from Shanghai SLAC Experimental Animal Co., Ltd., and were raised in a SPF-level laboratory. Drinking water and padding were both subjected to aseptic processing via high-pressure disinfection, and all operations of the mice were conducted under aseptic conditions;
2. About 5×10^6 gastrointestinal stromal tumor cell lines GIST-T1 or GIST-882 (purchased from ATCC) were respectively injected subcutaneously at left side back of all mice at Day 0;
5. Mice were sacrificed on Day 36 (for GIST-882 mouse model) or Day 43 (GIST-T1 mouse model) and subcutaneous tumors were taken out and weighed for comparison;
6. Tumor tissue specimens were prepared into protein lysate samples for further usage;
7. Growth trend of subcutaneous tumors from Day 16 to Day 43 was derived, and tumor volume was calculated as length×width×width/2 mm^3.

The subject of data set [3] is cells expressing wild-type ABL and mutant Bcr-Abl kinase. Kind of data set: Cell proliferation, text summary for ABL/Bcr-Abl cells. It counts as cell-based. The note with it: summary of Table 2.
Description: as §1, with “USA). […]” for “USA).”
as §2

A further data set concerns BaF3 cells. Kind of data set: Cell proliferation, CCK-8, parental BaF3. The class given is cell-based. The note with it: Mus musculus, 72 hours.
Description: as §1, §2

For the compound `Cc1ccc(NC(=O)c2cccc(C(F)(F)F)c2)cc1OC1CCN(C(=O)c2ccncc2)CC1` [Compound 4], the GI50 is 21 nM with GIST-T1 cells, 6050 nM in data set [1], greater than 5000 nM in data set [3] and greater than 10000 nM in the data set with BaF3 cells. At protein kinase C-KIT, the pIC50 is 7.00. For the same compound, the tumor inhibition rate was 44% in data set [2] (50 mg/kg oral daily) and 58% in data set [2] (100 mg/kg oral daily). Further, the “effect on body weight of mice” value in data set [2] (oral daily dosing) was “no effect on the body weight of mice”.

The term GI50 denotes the concentration that inhibits growth by half. Usually pIC50 stands for the IC50 on a negative log10 scale, so that one unit is a factor of ten. High values mean a small IC50, low ones a large IC50.
